For 1 compound, EC50 results are on record in US8389739B1, “Modulators of retinoid-related orphan receptor gamma” (Orphagen Pharmaceuticals, priority 2006, dated 2013).

For this assay, the system named is IL-17 release in lymph node cultures. As to the kind of experiment: Lymph node cell cultures from MOG35-55 immunized C57BL/6 mice, IL-17 ELISA. The format is cell-based. Particulars: Mus musculus, 72 h; MOG and IL-23, 3 days, dose-response (FIG. 13F); read-out: EC50 for inhibition of IL-17 production. How it is done: FIGS. 13A-F. IL-17 levels in lymph node cells from mice immunized with myelin-derived peptides respond to cognate peptide antigens, IL-23 and RORγ ligands. (FIG. 13A) SJL/J mice were immunized by complete Freund's adjuvant (CFA) only or by Proteolipid Protein residues 139-151 (PLP139-151) emulsified in CFA. Lymph nodes were cultured for 3 days in with or without 40 μg/ml PLP in the presence or absence of OR-885. Culture media were analyzed by ELISA for IL-17. (FIGS. 13B-C) Lymph node cells from PLP-immunized SJL/J mice were cultured as before with the addition of 10 ng/ml IL-23 and 3 μM compounds. At the end of 1 day or 3 days in culture, Th-17 (CD4^+CD8^−IL17^+) cell frequency was measured by FACS (FIG. 13B) and compared to IL-17 levels in culture media (FIG. 13C). (FIGS. 13D-F) Lymph node cells from MOG35-55 immunized C57BL/6 mice were cultured for 3 days with 30 μg/ml MOG and/or 10 ng/ml IL-23. RORγ ligands were not added (FIG. 13D), or added at the beginning of the culture at a single concentration (FIG. 13E, 1 μM) or in multiple doses (FIG. 13F). […]
Overall, cultured lymph node cells that are stimulated with IL-23 and peptide antigens provide a model system to examine IL-17 production ex vivo (FIG. 13D). We analyzed a variety of RORγ ligands for their ability to regulate IL-17 (FIG. 13E). […] This potency is consistent with that measured in the CHO cell transcription assay.
For orientation: ELISA stands for enzyme-linked immunosorbent assay.

The structures appear in SMILES notation.

Usually EC50 stands for the midpoint of the concentration-response curve.

As to `C[C@@H]1CC[C@@]2(OC1)O[C@H]1C[C@H]3[C@@H]4CC[C@H]5C[C@@H](O)CC[C@]5(C)[C@H]4C[C@@H](O)[C@]3(C)[C@H]1[C@@H]2C` [OR-885, 5α,20α, 22α, 25D-SPIROSTAN-3β, 12β-DIOL], the EC50 is roughly 0.2 µM.
